In patent publication US4189484A, “Antihypertensive quinazoline derivatives” (priority 1977, dated 1980):

What was measured:
Adrenergic α-receptor = Adrenergic α-receptor blocking effect (inhibition of hypertensive action of i.v. adrenalin hydrochloride); format: in vivo, Wistar strain male rats; conditions: relative to prazosin
Experimental: Wistar strain male rats, weighing 250-300 g., were used in this experiment. The rat was anesthetized with pentobarbital sodium and fitted in the right femoral artery with a cannula for determination of blood pressure and in the left femoral vein with another cannula for intravenous injection, the former cannula being connected to an electronic recording system to measure a blood pressure.
Adrenergic α-receptor blocking effect was determined upon whether a hypertensive action with intravenous injection of adrenalin hydrochloride at 0.3 or 1 μg./kg. may be reserved by pretreatment with the test compound.

[1] = system: spontaneously hypertensive rats (SHR); experiment: Antihypertensive effect, oral administration to spontaneously hypertensive rats (mean blood pressure and heart rate); format: in vivo, rat; conditions: for Change in blood pressure after 3 hrs. from administration: Table 1; for Changes in blood pressure (BP) after oral administration / Changes in heart rate (HR) after oral administration: Table 2, male SHR, n=5, p.o.; for Changes in average blood pressures after administration: Table 3
Experimental: Antihypertensive effect was determined by oral administration of the test compound to spontaneously hypertensive rats (hereinafter referred to as SHR).
These SHR were anesthetized with ether and chronically embedded with a cannula for determination of blood pressure so that one end of the said cannula may be placed in abdominal aorta and the other end thereof may be projected out of dorsal neck. When rats regained their body weight before operation in more than 1 week from operation, the test compound was given. Determination was made by measuring a mean blood pressure and a heart rate under unanesthetized and unrestrained conditions with the cannula connected to an electronic recording system. The test compound was suspended in a 1% tragacanth gum solution to make up a concentration so as to be a volume of 5 ml./kg. and then orally given.

ICR strain male mice = experiment: in vivo; format: in vivo; conditions: for No. of deceased animal: 8 animals per group, 1 week
Experimental: (§1) ICR strain male mice, weighing 30-35 g., were deprived of food for 6 hours (water ad libitum) and then used in the experiment. Each group consisted of 8 animals. The test compound was suspended in a 1% tragacanth gum solution so as to be a volume of 40 ml./kg. and orally given. After administration, numbers of deceased animals, changes in body weight and other general states were observed or determined over 1 week.
(§2) Survived mice were autopsyed.

in vivo = format: in vivo; conditions: mouse, in vivo, po; mice
Experimental: as §1, §2

| Compound | α-receptor blocking action as compared with the action of prazosin (Adrenergic α-receptor) | time of maximum antihypertensive effect from oral administration ([1]; SHR, p.o.) | Change in blood pressure after 3 hrs. from administration ([1]; SHR, p.o., 1 mg./kg., 3 hrs.) | Change in blood pressure after 3 hrs. from administration ([1]; SHR, p.o., 10 mg./kg., 3 hrs.) | Changes in blood pressure (BP) after oral administration ([1]; 0.3 mg./kg., 1 hr.) | Changes in heart rate (HR) after oral administration ([1]; 0.3 mg./kg., 1 hr.) | Changes in blood pressure (BP) after oral administration ([1]; 0.3 mg./kg., 3 hrs.) | Changes in heart rate (HR) after oral administration ([1]; 0.3 mg./kg., 3 hrs.) | Changes in blood pressure (BP) after oral administration ([1]; 0.3 mg./kg., 6 hrs.) | Changes in heart rate (HR) after oral administration ([1]; 0.3 mg./kg., 6 hrs.) | Changes in blood pressure (BP) after oral administration ([1]; 0.3 mg./kg., 24 hrs.) | Changes in heart rate (HR) after oral administration ([1]; 0.3 mg./kg., 24 hrs.) | Changes in blood pressure (BP) after oral administration ([1]; 1 mg./kg., 1 hr.) | Changes in heart rate (HR) after oral administration ([1]; 1 mg./kg., 1 hr.) | Changes in heart rate (HR) after oral administration ([1]; 1 mg./kg., 3 hrs.) | Changes in blood pressure (BP) after oral administration ([1]; 1 mg./kg., 6 hrs.) | Changes in heart rate (HR) after oral administration ([1]; 1 mg./kg., 6 hrs.) | No. of deceased animal (ICR strain male mice; p.o., 1,250 mg./kg.) | No. of deceased animal (ICR strain male mice; p.o., 2,500 mg./kg.) | No. of deceased animal (ICR strain male mice; p.o., 5,000 mg./kg.) | further results |
| --- | --- | --- | --- | --- | --- | --- | --- | --- | --- | --- | --- | --- | --- | --- | --- | --- | --- | --- | --- | --- | --- |
| COc1cc2nc(N3CCN(C(=O)C=Cc4ccccc4)CC3)nc(N)c2cc1OC [Compound No. 1, 2-(4-Cinnamoylpiperazin-1-yl)-4-amino-6,7-dimethoxyquinazoline] | 1/10 | 3 to 6 h | -18 mmHg | -53 mmHg | -14±5.1 mm.Hg. | -5.3±3.9 no/min. | -16±3.3 mm.Hg. | -3.8±7.4 no/min. | -19±1.9 mm.Hg. | 0.3±5.9 no/min. | 4±4.3 mm.Hg. | 3.9±7.1 no/min. | -20±1.6 mm.Hg. | -4.8±4.1 no/min. | -1.5±4.7 no/min. | -27±4.1 mm.Hg. | -7.9±2.7 no/min. | 0 | 0 | 0 | antihypertensive effect, dose dependence ([1]; SHR, p.o., 0.3-3 mg./kg., in words): correlated with a dose; Changes in blood pressure (BP) after oral administration ([1]; 1 mg./kg., 3 hrs.): -26±3.3 mm.Hg.; Changes in blood pressure (BP) after oral administration ([1]; 1 mg./kg., 24 hrs.): -2±1.2 mm.Hg.; Changes in heart rate (HR) after oral administration ([1]; 1 mg./kg., 24 hrs.): -0.5±3.2 no/min.; Changes in blood pressure (BP) after oral administration ([1]; 3 mg./kg., 1 hr.): -40±3.5 mm.Hg.; Changes in heart rate (HR) after oral administration ([1]; 3 mg./kg., 1 hr.): 6.9±5.4 no/min.; Changes in blood pressure (BP) after oral administration ([1]; 3 mg./kg., 3 hrs.): -35±4.4 mm.Hg.; Changes in heart rate (HR) after oral administration ([1]; 3 mg./kg., 3 hrs.): -1.7±5.5 no/min.; Changes in blood pressure (BP) after oral administration ([1]; 3 mg./kg., 6 hrs.): -35±3.5 mm.Hg.; Changes in heart rate (HR) after oral administration ([1]; 3 mg./kg., 6 hrs.): 10.0±8.3 no/min.; Changes in blood pressure (BP) after oral administration ([1]; 3 mg./kg., 24 hrs.): -4±4.3 mm.Hg.; Changes in heart rate (HR) after oral administration ([1]; 3 mg./kg., 24 hrs.): 19.5±7.2 no/min.; Body weight gain after 7 days (ICR strain male mice; p.o., 1,250 mg./kg.): +3.9 g.; Body weight gain after 7 days (ICR strain male mice; p.o., 2,500 mg./kg.): +4.0 g.; Body weight gain after 7 days (ICR strain male mice; p.o., 5,000 mg./kg.): +4.7 g.; LD50 at 168 h (in vivo): > 5000 mg/kg |
| COc1ccc(C=CC(=O)N2CCN(c3nc(N)c4cc(OC)c(OC)cc4n3)CC2)cc1 [Compound No. 8, 2-[4-(4-Methoxycinnamoyl)-piperazin-1-yl]-4-amino-6,7-dimethoxyquinazoline] | 1/100 |  |  | -25 mmHg |  |  |  |  |  |  |  |  |  |  |  |  |  |  |  |  |  |
| CCOc1ccc(C=CC(=O)N2CCN(c3nc(N)c4cc(OC)c(OC)cc4n3)CC2)cc1 [Compound No. 10, 2-[4-(4-Ethoxycinnamoyl)-piperazine-1-yl]-4-amino-6,7-dimethoxyquinazoline] | 1/100 |  | -19 mmHg | -53 mmHg |  |  |  |  |  |  |  |  |  |  |  |  |  |  |  |  |  |
| COc1cc2nc(N3CCN(C(=O)C=Cc4ccc5c(c4)OCO5)CC3)nc(N)c2cc1OC [Compound No. 16, 2-[4-(3,4-Methylenedioxycinnamoyl)-piperazin-1-yl]-4-amino-6,7-dimethoxyquinazoline] | 1/100 |  |  | -13 mmHg |  |  |  |  |  |  |  |  |  |  |  |  |  |  |  |  |  |
| COc1cc2nc(N3CCN(C(=O)c4ccco4)CC3)nc(N)c2cc1OC [Prazosin, reference compound] |  | 1 h |  |  | -34±5.6 mm.Hg. | 6.3±3.3 no/min. | -25±3.5 mm.Hg. | 5.3±4.6 no/min. | -27±4.4 mm.Hg. | 3.2±3.0 no/min. | -1±4.3 mm.Hg. | 4.3±4.9 no/min. | -46±2.9 mm.Hg. | 7.0±4.4 no/min. | 1.5±2.8 no/min. | -31±2.9 mm.Hg. | -9.8±6.1 no/min. | 0 | 0 | 0 | antihypertensive effect, compound compared with prazosin ([1]; SHR, p.o., in words): approximately equal antihypertensive effect to that of the present quinazoline compound after 3 hours; Changes in blood pressure (BP) after oral administration ([1]; 1 mg./kg., 24 hrs.): -6±1.9 mm.Hg.; Changes in heart rate (HR) after oral administration ([1]; 1 mg./kg., 24 hrs.): -3.9±2.8 no/min.; Changes in blood pressure (BP) after oral administration ([1]; 3 mg./kg., 1 hr.): -50±6.5 mm.Hg.; Changes in heart rate (HR) after oral administration ([1]; 3 mg./kg., 1 hr.): 12.7±7.8 no/min.; Changes in blood pressure (BP) after oral administration ([1]; 3 mg./kg., 3 hrs.): -31±5.8 mm.Hg.; Changes in heart rate (HR) after oral administration ([1]; 3 mg./kg., 3 hrs.): 17.8±7.7 no/min.; Changes in blood pressure (BP) after oral administration ([1]; 3 mg./kg., 6 hrs.): -34±6.2 mm.Hg.; Changes in heart rate (HR) after oral administration ([1]; 3 mg./kg., 6 hrs.): 9.4±8.3 no/min.; Changes in blood pressure (BP) after oral administration ([1]; 3 mg./kg., 24 hrs.): -3± 5.8 mm.Hg.; Changes in heart rate (HR) after oral administration ([1]; 3 mg./kg., 24 hrs.): 26.8±8.3 no/min.; Changes in average blood pressures after administration ([1]; SHR, p.o., 1 mg./kg., 1 hr.): -46 mmHg; Changes in average blood pressures after administration ([1]; SHR, p.o., 1 mg./kg., 3 hrs.): -37 mmHg; Changes in average blood pressures after administration ([1]; SHR, p.o., 1 mg./kg., 6 hrs.): -31 mmHg; Changes in average blood pressures after administration ([1]; SHR, p.o., 1 mg./kg., 24 hrs.): -6 mmHg; Changes in average blood pressures after administration ([1]; SHR, p.o., 3 mg./kg., 1 hr.): -50 mmHg; Changes in average blood pressures after administration ([1]; SHR, p.o., 3 mg./kg., 3 hrs.): -31 mmHg; Changes in average blood pressures after administration ([1]; SHR, p.o., 3 mg./kg., 6 hrs.): -34 mmHg; Changes in average blood pressures after administration ([1]; SHR, p.o., 3 mg./kg., 24 hrs.): -3 mmHg |
| COc1cc2nc(N3CCN(C(=O)C=Cc4ccco4)CC3)nc(N)c2cc1OC [compound 28, 2-{4-[3-(Furan-2-yl)-acryloyl]-piperazin-1-yl}-4-amino-6,7-dimethoxyquinazoline] |  |  |  |  |  |  |  |  |  |  |  |  |  |  |  |  |  | 0 | 0 | 0 | Changes in average blood pressures after administration ([1]; SHR, p.o., 1 mg./kg., 1 hr.): -51 mmHg; Changes in average blood pressures after administration ([1]; SHR, p.o., 1 mg./kg., 3 hrs.): -31 mmHg; Changes in average blood pressures after administration ([1]; SHR, p.o., 1 mg./kg., 6 hrs.): -38 mmHg; Changes in average blood pressures after administration ([1]; SHR, p.o., 1 mg./kg., 24 hrs.): -11 mmHg; Changes in average blood pressures after administration ([1]; SHR, p.o., 3 mg./kg., 1 hr.): -74 mmHg; Changes in average blood pressures after administration ([1]; SHR, p.o., 3 mg./kg., 3 hrs.): -38 mmHg; Changes in average blood pressures after administration ([1]; SHR, p.o., 3 mg./kg., 6 hrs.): -43 mmHg; Changes in average blood pressures after administration ([1]; SHR, p.o., 3 mg./kg., 24 hrs.): -15 mmHg; Body weight gain after 7 days (ICR strain male mice; p.o., 1,250 mg./kg.): +2.6 g.; Body weight gain after 7 days (ICR strain male mice; p.o., 2,500 mg./kg.): +3.0 g.; Body weight gain after 7 days (ICR strain male mice; p.o., 5,000 mg./kg.): +0.2 g.; LD50 at 168 h (in vivo): > 5000 mg/kg |
